Earlier results, collected in patent US20110008431A1, “THERAPEUTIC TABLET FOR POSTHERPETIC NEURALGIA AND METHOD OF TREATING POSTHERPETIC NEURALGIA” (TOYO BOSEKI KABUSHIKI KAISHA, priority 2007, published 2011).

Tested on: patient with neuropathic pain
Details: devazepide in combination with an opioid analgesic agent such as morphine, Patent Document 1

SMILES: CN1C(=O)[C@@H](NC(=O)c2cc3ccccc3[nH]2)N=C(c2ccccc2)c2ccccc21 [devazepide]
- subjects who attained pain relief: 10 of 41
